# Experimental data reported in PMC2866539, “HLA Class I Binding 9mer Peptides from Influenza A Virus Induce CD4^+ T Cell Responses” (PLoS ONE, 2010).
# Where no end group is shown, it is not given here.
# How the values were obtained:
# Experiment in all cases: biochemical
# Format in all cases: binding
# DRA1*0101/DRB1*0101 = target: T1, DRA1*0101/DRB1*0101 (Homo sapiens, UniProt P01903+P01911, A100R/D57E/F55L/F60I/F76Y/I96L/L162R/M171V/P40L/Q125E/R42F/V115G/Y59C)
# T1 construct: made in house
# DRA1*0101/DRB1*0301 = DRA1*0101/DRB1*0301 (Homo sapiens, UniProt P01903+P01911, A100K/A102G/A103R/A169T/F55Y/I96L/K41T/L162R/M171V/P40S/Q125H/Q178H/Q39Y/R42S/S66N/T106N/T262R/W38E/Y61H)
# DRA1*0101/DRB1*0301, sequence (P01903 26-254 limits assumed, other chains not shown): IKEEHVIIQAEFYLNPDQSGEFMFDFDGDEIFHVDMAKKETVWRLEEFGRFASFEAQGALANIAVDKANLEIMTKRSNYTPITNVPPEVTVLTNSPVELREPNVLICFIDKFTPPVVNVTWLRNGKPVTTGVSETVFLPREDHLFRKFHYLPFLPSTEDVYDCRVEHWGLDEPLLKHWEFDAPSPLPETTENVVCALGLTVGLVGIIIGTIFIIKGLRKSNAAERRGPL
# DRA1*0101/DRB1*0302 = DRA1*0101/DRB1*0302 (Homo sapiens, UniProt P01903+P01911, A100K/A102G/A103R/A169T/D57E/F76Y/I96L/K41T/L162R/M171V/P40S/Q125H/Q178H/Q39Y/R42S/S66N/T106N/T262R/V115G/W38E/Y61H)
# DRA1*0101/DRB1*0401 = target: T2, DRA1*0101/DRB1*0401 (Homo sapiens, UniProt P01903+P01911, A100K/A169T/F76Y/I96L/K127E/L162R/M171V/N62H/P40V/Q125Y/R42H/S133A/S149N/S66Y/V115G/V209L/W38E)
# T2 construct: made in house
# DRA1*0101/DRB3*0301 = DRA1*0101/DRB3*0301 (Homo sapiens, UniProt P01903+P79483, A169T/A212P/D57E/G115V/L67V/Q178H/R103Q/R40L/Y55F)
# DRA1*0101/DRB3*0301, sequence (P01903 26-254 limits assumed): as the sequence (P01903 26-254 limits assumed, other chains not shown) above
# DRA1*0101/DRB3*0301, sequence (P79483 30-266 R40L/Y55F/D57E/L67V/R103Q/G115V/A169T/Q178H/A212P limits assumed): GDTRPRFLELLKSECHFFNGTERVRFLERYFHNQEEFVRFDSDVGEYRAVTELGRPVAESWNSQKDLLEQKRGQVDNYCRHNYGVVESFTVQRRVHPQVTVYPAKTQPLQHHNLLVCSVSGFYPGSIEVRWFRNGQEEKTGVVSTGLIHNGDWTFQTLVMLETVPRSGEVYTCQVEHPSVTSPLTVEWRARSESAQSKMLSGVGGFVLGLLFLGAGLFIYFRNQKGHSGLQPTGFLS
sequence,measurement,setting,value
"YILLKKILSSRFNQM [hypothetical protein 239–253, reference compound]",Kd,DRA1*0101/DRB1*0101,0.435 µM
same,Kd,DRA1*0101/DRB1*0301,0.02 µM
same,Kd,DRA1*0101/DRB1*0302,0.156 µM
same,Kd,DRA1*0101/DRB1*0401,0.107 µM
same,Kd,DRA1*0101/DRB3*0301,0.003 µM
